From patent US5665745A, “Heterocyclic compounds and their preparation and use” (Eli Lilly and Company, priority 1995, dated 1997)
Read-outs that look alike come from different tables or passages of the source.

Tests used:
[1] = target: muscarinic acetylcholine receptors; experiment: inhibition of specific binding of ^3 H-Oxotremorine-M (^3 H-Oxo); design: species or system rat (male Wistar; settings: ^3 H-Oxotremorine 1.0 nM, rat cortex, 30 min. at 25° C.
How it was run: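 Rat cortex membranes (male Wistar) in 20 mM Hepes pH 7.4 incubated with 1.0 nM ^3H-Oxotremorine-M (final) and test compound for 30 min at 25 °C; arecoline defines non-specific binding. Bound radioactivity by filtration and scintillation counting; IC50 (nM) from a single concentration via Co/Cx mass-action formula, reflecting high- and medium-affinity sites.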

[2] = target: T1, muscarinic receptors (M1 -site, pirenzepine sensitive site) (Rattus norvegicus, UniProt P08482); experiment: inhibition of ^3 HPRZ (pirenzepine, [N-methyl-^3 H]) binding to rat cerebral cortex membranes; design: species or system rat (male Wistar
T1 construct: from tissue; host or cells: cerebral cortex membranes of male Wistar rats
T1 sequence (P08482 1-460): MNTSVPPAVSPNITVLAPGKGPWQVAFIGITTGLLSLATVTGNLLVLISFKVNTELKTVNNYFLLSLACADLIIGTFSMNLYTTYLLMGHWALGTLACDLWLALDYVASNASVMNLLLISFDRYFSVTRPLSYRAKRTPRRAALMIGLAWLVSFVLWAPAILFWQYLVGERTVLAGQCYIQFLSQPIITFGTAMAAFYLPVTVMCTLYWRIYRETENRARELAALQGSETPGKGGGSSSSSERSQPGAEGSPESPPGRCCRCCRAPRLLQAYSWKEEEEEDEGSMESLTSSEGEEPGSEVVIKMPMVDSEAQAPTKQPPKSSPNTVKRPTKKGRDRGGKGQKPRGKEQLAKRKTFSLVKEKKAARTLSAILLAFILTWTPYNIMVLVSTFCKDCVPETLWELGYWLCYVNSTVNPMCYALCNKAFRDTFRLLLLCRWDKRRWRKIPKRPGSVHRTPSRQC
How it was run: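 Male Wistar rat cortex membranes in 20 mM Hepes pH 7.4 were incubated with 1.0 nM (final) [3H]pirenzepine for 60 min at 20° C; nonspecific binding was defined with 1 μg/mL atropine. Filtration and scintillation counting were used, and IC50 was calculated from a single concentration assuming mass-action kinetics.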

[3] = ^3 HPRZ 1.0 nM, rat cortex, 60 min. at 20° C., read-out: ^3 HPRZ IC50 (head from b208 on: Pir IC-50)

Compound: C(#Cc1ccccc1)COc1nsnc1OC1CN2CCC1CC2 (racemic) [Compound 107, (±)-3-(3-phenylpropynyloxy)-4-(1-azabicyclo[2.2.2]octyl-3-oxy)-1,2,5-thiadiazole]
- IC50 [1]: 9.6 nM
- IC50 [2]: 22.4 nM

Compound: CC(C)=CCOc1nsnc1O[C@@H]1CN2CCC[C@H]1C2 (relative stereo) [Compound 201, (±)-endo-3-(3-Methyl-2-butenyloxy)-4-(1-azabicyclo[3.2.1]octyl-6-oxy)-1,2,5-thiadiazole]
- IC50 [1]: 3.7 nM
- IC50 [2, 3]: 3.1 nM

Compound: CCCCOc1nsnc1O[C@@H]1C[C@H]2CC(=O)C[C@@H]1N2C (relative stereo) [Compound 46, (±)-exo-3-Butyloxy-4-(6-(N-methyl-8-azabicyclo[3.2.1]octan-3-onoxy))-1,2,5-thiadiazole]
- IC50 [1]: > 1000 nM
- IC50 [2, 3]: > 1000 nM

Compound: CCCCCSc1nsnc1OC1CN2CCC1CC2 (racemic) [Compound 15, (±)-3-Pentylthio-4-(1-azabicyclo[2.2.2]octyl-3-oxy)-1,2,5-thiadiazole]
- IC50 [1]: 1.6 nM
- IC50 [2]: 2.3 nM

Compound: C/C=C/COc1nsnc1OC1CN2CCC1CC2 (mixture of isomers) [Compound 109, (±)-3-(trans-2-butenyloxy)-4-(1-azabicyclo[2.2.2]octyl-3-oxy)-1,2,5-thiadiazole]
- IC50 [1]: 12.3 nM
- IC50 [2]: 58.3 nM

Compound: CCCCSc1nsnc1O[C@H]1CN2CCC[C@@H]1C2 [Compound 138, (5R,6R)-endo-3-Butylthio-4-(1-azabicyclo[3.2.1]octyl-6-oxy)-1,2,5-thiadiazole]
- IC50 [1]: 0.65 nM
- IC50 [2, 3]: 0.47 nM

Compound: CCCCOc1nsnc1O[C@@H]1CCC[C@H]1N(C)C (racemic) [Compound 52, (±)-trans-3-Butyloxy-4-(2-dimethylaminocyclopentyloxy)-1,2,5-thiadiazole]
- IC50 [1]: > 1000 nM
- IC50 [2, 3]: 475 nM

Compound: c1csc(-c2ccc(Sc3nsnc3OC3CN4CCC3CC4)s2)c1 (racemic) [Compound 57, (±)-3-(2-(5-(2-Thienyl)thienyl)thio)-4-(1-azabicyclo [2.2.2]octyl-3-oxy)-1,2,5-thiadiazole]
- IC50 [1]: 88 nM
- IC50 [2]: 37 nM

Compound: CCCCOc1nsnc1OCCN(C)C [Compound 33, 3-Butyloxy-4-(2-(dimethylamino)ethoxy)-1,2,5-thiadiazole]
- IC50 [1]: 51 nM
- IC50 [2, 3]: 48 nM

Compound: C1C[C@H]2CN(C1)C[C@H]2Oc1nsnc1OCCC1CC1 (relative stereo) [Compound 185]
- IC50 [1]: 0.76 nM
- IC50 [2, 3]: 2 nM

Compound: Fc1ccc(OCCOc2nsnc2OC2CN3CCC2CC3)cc1 (racemic) [Compound 121, (±)-3-(2-[4-Fluorophenoxy]ethoxy)-4-(1-azabicyclo[2.2.2]octyl-3-oxy)-1,2,5-thiadiazole]
- IC50 [1]: 12 nM
- IC50 [2, 3]: 146 nM

Compound: CCCCSc1nsnc1OCC1CN2CCC1CC2 (racemic) [Compound 22, (±)-3-Butylthio-4-((1-azabicyclo[2.2.2]octan-3-yl)-methoxy)-1,2,5-thiadiazole]
- IC50 [1]: 23 nM
- IC50 [2]: 7.4 nM

Compound: c1ccc(CCCCSc2nsnc2OC2CN3CCC2CC3)cc1 (racemic) [Compound 148, (±)-3-(4-Phenylbutylthio)-4-(1-azabicyclo[2.2.2]octyl-3-oxy)-1,2,5-thiadiazole]
- IC50 [1]: 8 nM
- IC50 [2]: 25 nM

Compound: FC(F)(F)c1ccc(CCCSc2nsnc2OC2CN3CCC2CC3)cc1 (racemic) [Compound 74, (±)3-{3-[4-(Trifluoromethyl)phenyl]propylthio}-4-[-3-(1-azabicyclo[2.2.2]octyloxy)]-1,2,5-thiadiazole]
- IC50 [1]: 24 nM
- IC50 [2]: 40 nM

Compound: N#Cc1ccc(CSc2nsnc2OC2CN3CCC2CC3)cc1 (racemic) [Compound 41, (±)-3-(4-Cyanobenzylthio)-4-(1-azabicyclo[2.2.2]octyl-3-oxy)-1,2,5-thiadiazole]
- IC50 [1]: 25 nM
- IC50 [2]: 19 nM

Compound: c1ccc(OCCSc2nsnc2O[C@@H]2CN3CCC[C@H]2C3)cc1 (relative stereo) [Compound 156, (±)-endo-3-(2-Phenoxyethylthio)-4-(1-azabicyclo[3.2.1]octyl-6-oxy)-1,2,5-thiadiazole]
- IC50 [1]: 1 nM
- IC50 [2, 3]: 0.6 nM

Compound: FC(F)(F)c1ccc(SCCSc2nsnc2OC2CN3CCC2CC3)s1 (racemic) [Compound 55, (±)-3-(2-(2-Thio-5-trifluoromethylthienyl)ethylthio)-4-(1-azabicyclo[2.2.2]octyl-3-oxy)-1,2,5-thiadiazole]
- IC50 [1]: 11 nM
- IC50 [2]: 23 nM

Compound: FC(F)(F)C(F)(F)CSc1nsnc1OC1CN2CCC1CC2 (racemic) [Compound 20, (±)-3-(2,2,3,3,3-Pentafluoropropylthio)-4-(1-azabicyclo-[2.2.2]octyl-3-oxy)-1,2,5-thiadiazole]
- IC50 [1]: 2.6 nM
- IC50 [2]: 4 nM

Compound: CSCCOc1nsnc1O[C@@H]1CN2CCC[C@H]1C2 (relative stereo) [Compound 170, (±)-endo-3-(2-Methylthioethoxy)-4-(1-azabicyclo[3.2.1]octyl-6-oxy)-1,2,5-thiadiazole]
- IC50 [1]: 1.5 nM
- IC50 [2, 3]: 3 nM

Compound: FCCCOc1nsnc1O[C@@H]1CN2CCC[C@H]1C2 (relative stereo) [Compound 205, (±)-endo-3-(3-Fluoropropoxy)-4-(1-azabicyclo[3.2.1]octyl-6-oxy)-1,2,5-thiadiazole]
- IC50 [1]: 2.5 nM
- IC50 [2, 3]: 3 nM

Compound: C1CCC(CCOc2nsnc2O[C@@H]2CN3CCC[C@H]2C3)CC1 (relative stereo) [Compound 200, (±)-endo-3-(2-Cyclohexylethoxy)-4-(1-azabicyclo[3.2.1]octyl-6-oxy)-1,2,5-thiadiazole]
- IC50 [1]: 16 nM
- IC50 [2, 3]: 12 nM

Compound: FCCCOc1nsnc1OC1CN2CCC1CC2 (racemic) [Compound 123, (±)-3-(3-Fluoropropyloxy)-4-(1-azabicyclo[2.2.2]octyl-3-oxy)-1,2,5-thiadiazole]
- IC50 [1]: 42 nM
- IC50 [2, 3]: 106 nM

Compound: C=CCCCOc1nsnc1OC1CN2CCC1CC2 (racemic) [Compound 122, (±)-3-(4-pentenyloxy)-4-(1-azabicyclo[2.2.2]octyl-3-oxy)-1,2,5-thiadiazole]
- IC50 [1]: 11 nM
- IC50 [2]: 45 nM

Compound: CCCCCOc1nsnc1OC1CN2CCC1CC2 (racemic) [Compound 9, (±)-3-Pentyloxy-4-(1-azabicyclo[2.2.2]octyl-3-oxy)-1,2,5-thiadiazole]
- IC50 [1]: 11 nM
- IC50 [2]: 25 nM

Compound: CCCCSc1nsnc1O[C@H]1CN2CCC[C@@H]1C2 (relative stereo) [Compound 70, (±)3-(1-Butylthio)-4-[endo-6-(1-azabicyclo[3.2.1]octyloxy)]-1,2,5-thiadiazole]
- IC50 [1]: 1.3 nM
- IC50 [2, 3]: 0.65 nM

Compound: Fc1ccc(COc2nsnc2O[C@@H]2CN3CCC[C@H]2C3)cc1 (relative stereo) [Compound 194, (±)-endo-3-(4-Fluorobenzyloxy)-4-(1-azabicyclo[3.2.1]octyl-6-oxy)-1,2,5-thiadiazole]
- IC50 [1]: 2.1 nM
- IC50 [2, 3]: 4 nM

Compound: CCCCCSc1nsnc1O[C@H]1CN2CCC1CC2 [Compound 38, (R)-3-Pentylthio-4-(1-azabicyclo[2.2.2]octyl-3-oxy)-1,2,5-thiadiazole]
- IC50 [1]: 1 nM
- IC50 [2]: 1.9 nM

Compound: COc1ccc(CCCOc2nsnc2O[C@@H]2CN3CCC[C@H]2C3)cc1 (relative stereo) [Compound 193, (±)-endo-3-[3-(4-Methoxyphenyl)propoxy]-4-(1-azabicyclo[3.2.1]octyl-6-oxy)-1,2,5-thiadiazole]
- IC50 [1]: 3.7 nM
- IC50 [2, 3]: 10 nM

Compound: C=CCCOc1nsnc1OC1CN2CCC1CC2 (racemic) [Compound 108, (±)-3-(3-Butenyloxy)-4-(1-azabicyclo[2.2.2]octyl-3-oxy)-1,2,5-thiadiazole]
- IC50 [1]: 9.1 nM
- IC50 [2]: 56.1 nM

Compound: CC(C)=CCCOc1nsnc1O[C@@H]1CN2CCC[C@H]1C2 (relative stereo) [Compound 180, (±)-endo-3-(4-Methyl-3-pentenyloxy)-4-(1-azabicyclo[3.2.1]octyl-6-oxy)-1,2,5-thiadiazole]
- IC50 [1]: 4.7 nM
- IC50 [2, 3]: 11 nM

Compound: C(=Cc1ccccc1)CSc1nsnc1OC1CN2CCC1CC2 (racemic) [Compound 149, (±)-3-(3-Phenyl-2-propenylthio)-4-(1-azabicyclo[2.2.2]octyl-3-oxy)-1,2,5-thiadiazole]
- IC50 [1]: 14 nM
- IC50 [2]: 30 nM

Compound: CC(C)(C)CCSc1nsnc1OC1CN2CCC1CC2 (racemic) [Compound 18, (±)-3-(3,3-Dimethylbutylthio)-4-(1-azabicyclo[2.2.2]-octyl-3-oxy)-1,2,5-thiadiazole]
- IC50 [1]: 101 nM
- IC50 [2]: 73 nM

Compound: CCCCSc1nsnc1OC1CCNC1 (racemic) [Compound 53, (±)-3-Butylthio-4-(3-pyrrolidnyloxy)-1,2,5-thiadiazole]
- IC50 [1]: 24 nM
- IC50 [2, 3]: 35 nM
